Counter-ions that a name gives are not always drawn.
Columns and labels:
[1] = molecular target: T1, vanilloid receptor (TRPV1) (Rattus norvegicus, UniProt O35433); experiment: [3H]Resiniferatoxin ([3H]RTX) binding experiment using rat spinal cord; settings: rat spinal cord membrane specimen, 37° C., 60 minutes; read-out: IC50 of [3H]RTX specific binding
T1 construct: The spinal cord was extirpated from an SPF/VAF rat; from tissue; host or cells: rat spinal cord membrane specimen (SPF/VAF rat, Charles River Laboratories Japan Inc.)
Procedure: [^3H]Resiniferatoxin ([^3H]RTX) Binding Experiment Using Rat Spinal Cord
The spinal cord was extirpated from an SPF/VAF rat (Charles River Laboratories Japan Inc.) and homogenized in an ice-cooled homogenization buffer (10 mmol/L HEPES/NaOH, 5 mmol/L KCl, 5.8 mmol/L NaCl, 2 mmol/L MgCl2, 0.75 mmol/L CaCl2, 12 mmol/L glucose, 137 mmol/L sucrose, pH 7.4). The resulting homogenate was centrifuged at 1000 g for 10 minutes at 4° C. The supernatant was centrifuged at 35000 g for 30 minutes at 4° C. The obtained precipitate was suspended in the homogenization buffer. The suspension was used as a tissue membrane specimen, and the protein concentration was determined using a protein assay staining solution (Bio-Rad Laboratories, US). The thus prepared specimen was stored at −80° C.
The known method [The Journal of Pharmacology and Experimental Therapeutics, 267: 728-733 (1993)] was modified and the modified method was performed. 400 μL of a membrane specimen solution (protein amount: about 50 μg) obtained by diluting the prepared specimen with an assay buffer (10 mmol/L HEPES/NaOH, 5 mmol/L KCl, 5.8 mmol/L NaCl, 2 mmol/L MgCl2, 0.75 mmol/L CaCl2, 12 mmol/L glucose, 137 mmol/L sucrose, 0.25 mg/mL bovine serum albumin, pH 7.4), 50 μL of a test compound solution, and 50 μL of [^3H]RTX (PerkinElmer Life Sciences Inc., US) were mixed and the mixture was incubated at 37° C. for 60 minutes. The reaction mixture was transferred on ice, and 50 μL of previously ice-cooled 2 mg/mL α1 acid glycoprotein (Sigma) was added thereto, and then, the mixture was centrifuged at 12000 g for 15 minutes at 4° C. A procedure in which 0.4 mL of the assay buffer was added to the obtained precipitate and the mixture was centrifuged at 12000 g for 15 minutes at 4° C. was performed twice. The precipitate obtained by the centrifugation was suspended in 0.5 mL of a 0.1 mol/L aqueous NaOH solution. 7 mL of Ultima Gold (Packard, US) was added to the suspension, and the radioactivity of the solution was measured using a liquid scintillation counter (LS6500: Beckman Coulter, Inc., US or TRI-CARB 2700TR: Packard, US). The [^3H]RTX binding amount in the presence of 0.1 μmol/L RTX was considered to be non-specific binding, and the specific binding was calculated by subtracting this value from the total amount of [^3H]RTX binding to the membrane specimen. Then, the replacement amount of the [^3H]RTX specific binding in the presence of the compound to the [^3H]RTX specific binding amount in the absence of the compound was calculated in percent. The IC50 value of the compound in this experiment was obtained from a logistic equation.
The logistic equation was fit to the following equation (equation 205 in the program) in the curve regression program XLfit (IDBS Inc.).
Y: Inhibition ratio X: Concentration of test compound

[2] = test system: entrapment nerve injury rat; experiment: Neuropathic pain inhibitory activity in entrapment nerve injury rat (von Frey pain threshold); format: in vivo; settings: orally administered, dose of 20 mg/kg or less, measured after 1 hour, von Frey filaments
Excerpt: Neuropathic Pain Inhibitory Activity of Compound in Entrapment Nerve Injury Rat
The method of Mosconi, Kruger et al. (Pain, vol. 64, pp. 37-57 (1996)) was modified partially and an entrapment nerve injury rat was produced.
By using a male Crl:CD(SD) rat, the sciatic nerve of the left hind limb was exfoliated under pentobarbital anesthesia, and the exfoliated region was covered with a polyethylene tube (trade name: Intramedic, size: PE-60, manufactured by Becton Dickinson and Company) with a length of 2 mm. On days 14 to 21 after the surgery, the rat was placed in a stainless-steel connected cage (750 mm (length)×210 mm (depth)×170 mm (height)) consisting of 5 cages connected in a row and having a mesh floor and was acclimated to the environment for at least 20 minutes, and then, the pain was evaluated.
The pain was evaluated using von Frey filaments (trade name: touch test sensory evaluator, Model number: model 58011, manufactured by Muromachi Kikai), and the results were calculated as a pain threshold. That is, by using a von Frey filament of different stimulation intensity, stimulation was given to the paw at the injured side of the entrapment nerve injury rat, and the stimulation intensity at which the paw was withdrawn was obtained. Then, the pain threshold (paw withdrawal threshold) (g) was calculated by the up down method of Dixon [Annual Review of Pharmacology and Toxicology, vol. 20, pp. 441-462 (1980)]. Incidentally, the pain threshold of a normal rat was from 10 to 12 g on an average.
In the evaluation of the test compound, a rat having a 50% pain threshold of less than 4 g was used, and the test compound was dissolved in a 0.5% aqueous methyl cellulose solution and orally administered at a dose of 5 mL/kg. After 1 hour, by using von Frey filaments, the pain threshold was measured.

T1 sequence (O35433 whole entry): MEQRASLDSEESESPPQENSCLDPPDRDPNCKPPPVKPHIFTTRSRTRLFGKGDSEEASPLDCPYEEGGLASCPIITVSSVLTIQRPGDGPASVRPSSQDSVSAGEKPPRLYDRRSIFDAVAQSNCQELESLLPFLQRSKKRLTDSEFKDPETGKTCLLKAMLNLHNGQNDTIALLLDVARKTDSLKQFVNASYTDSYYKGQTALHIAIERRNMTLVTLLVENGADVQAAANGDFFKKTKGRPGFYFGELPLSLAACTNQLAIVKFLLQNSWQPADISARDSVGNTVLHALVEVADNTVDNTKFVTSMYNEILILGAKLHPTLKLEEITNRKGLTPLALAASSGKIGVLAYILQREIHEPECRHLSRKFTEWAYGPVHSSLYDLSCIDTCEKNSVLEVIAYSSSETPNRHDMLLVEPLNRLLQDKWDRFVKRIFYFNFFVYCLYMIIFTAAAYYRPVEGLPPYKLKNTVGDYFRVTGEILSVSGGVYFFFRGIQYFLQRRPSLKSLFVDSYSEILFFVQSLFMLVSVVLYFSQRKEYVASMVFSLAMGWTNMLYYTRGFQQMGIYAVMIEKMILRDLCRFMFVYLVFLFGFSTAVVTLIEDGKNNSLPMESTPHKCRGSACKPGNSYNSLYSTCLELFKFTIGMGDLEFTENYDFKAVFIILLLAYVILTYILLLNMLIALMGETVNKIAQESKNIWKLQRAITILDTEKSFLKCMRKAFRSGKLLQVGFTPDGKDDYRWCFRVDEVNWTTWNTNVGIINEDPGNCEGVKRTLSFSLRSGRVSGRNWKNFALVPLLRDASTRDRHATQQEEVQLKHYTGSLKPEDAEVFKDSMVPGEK

Row | melting point | SMILES | IC50 [1] | pain threshold (paw withdrawal threshold) [2]
1 | 249 to 251 °C | O=C(/C=C/C=C(c1ccc(C(F)(F)F)cc1)c1ccc(C(F)(F)F)cc1)Nc1cccc2ccc(O)cc12 [Compound 10, (E)-N-(7-Hydroxynaphthalen-1-yl)-5,5-bis[4-(trifluoromethyl)phenyl]-2,4-pentadienamide] | < 100 nM | 
2 | 164 to 166 °C | O=C(/C=C/C=C(c1ccc(C(F)(F)F)cc1)c1ccc(C(F)(F)F)cc1)Nc1cccc2cnccc12 [Compound 11, (E)-N-(Isoquinolin-5-yl)-5,5-bis[4-(trifluoromethyl)phenyl]-2,4-pentadienamide] | < 100 nM | 
3 | 255 to 257 °C | O=C(/C=C/C=C(c1ccc(C(F)(F)F)cc1)c1ccc(C(F)(F)F)cc1)Nc1cncc(CO)c1 [Compound 25, (E)-N-[(5-Hydroxymethyl)pyridin-3-yl]-5,5-bis[4-(trifluoromethyl)phenyl]-2,4-pentadienamide] | < 100 nM | 
4 | 114 to 115 °C | O=C(/C=C/C=C(\c1ccccc1)c1ccc(C(F)(F)F)cc1)Nc1cccc2cnccc12 [Compound 59, (2E,4E)-N-(Isoquinolin-5-yl)-5-phenyl-5-[4-(trifluoromethyl)phenyl]-2,4-pentadienamide] | < 100 nM | 
5 |  | O=C(/C=C/C=C(/c1ccc(C(F)(F)F)cc1)c1ccco1)Nc1cccc2cnccc12 [Compound 63, (2E,4Z)-5-(Furan-2-yl)-N-(isoquinolin-5-yl)-5-[4-(trifluoromethyl)phenyl]-2,4-pentadienamide] |  | significantly increases the pain threshold
6 | 118 to 119 °C | N#Cc1cccc(/C(=C\C=C\C(=O)Nc2cccc3cnccc23)c2ccc(C(F)(F)F)cc2)c1 [Compound 68, (2E,4Z)-5-(3-Cyanophenyl)-N-(isoquinolin-5-yl)-5-[4-(trifluoromethyl)phenyl]-2,4-pentadienamide] | < 100 nM | 
7 | 142 to 143 °C | O=C(/C=C/C=C(\c1ccc(F)cc1)c1ccc(C(F)(F)F)cc1)Nc1cccc2cnccc12 [Compound 74, (2E,4Z)-5-(4-Fluorophenyl)-N-(isoquinolin-5-yl)-5-[4-(trifluoromethyl)phenyl]-2,4-pentadienamide] | < 100 nM | significantly increases the pain threshold
8 |  | CCOc1ccc(/C(=C\C=C\C(=O)Nc2ccccc2C(O)CO)c2ccc(C(F)(F)F)cc2)cc1 (stereo not drawn) [Compound 163, (2E,4Z)-N-[2-(1,2-Dihydroxyethyl)phenyl]-5-(4-ethoxyphenyl)-5-[4-(trifluoromethyl)phenyl]-2,4-pentadienamide] | < 100 nM | 
9 |  | CC(C)Oc1ccc(/C(=C\C=C\C(=O)Nc2cccc3[nH]ncc23)c2ccc(C(F)(F)F)cc2)cc1 [Compound 178, (2E,4Z)-N-(1H-Indazol-4-yl)-5-(4-isopropoxyphenyl)-5-[4-(trifluoromethyl)phenyl]-2,4-pentadienamide] | < 100 nM | significantly increases the pain threshold
10 |  | Cc1cccc(/C(=C\C=C\C(=O)Nc2cccc3c2CC(O)C(=O)N3)c2ccc(C(F)(F)F)cc2)c1 (stereo not drawn) [Compound 188, (2E,4Z)-N-(3-Hydroxy-2-oxo-1,2,3,4-tetrahydroquinolin-5-yl)-5-(3-methylphenyl)-5-[4-(trifluoromethyl)phenyl]-2,4-pentadienamide] | < 100 nM | significantly increases the pain threshold
11 |  | CC(C)(C)Oc1ccc(/C(=C\C=C\C(=O)Nc2cccc3c2CC(O)C(=O)N3)c2ccc(C(F)(F)F)cc2)cc1 (stereo not drawn) [Compound 191, (2E,4Z)-5-(4-tert-Butoxyphenyl)-N-(3-hydroxy-2-oxo-1,2,3,4-tetrahydroquinolin-5-yl)-5-[4-(trifluoromethyl)phenyl]-2,4-pentadienamide] | < 100 nM | significantly increases the pain threshold
12 |  | CC(C)Oc1ccc(/C(=C\C=C\C(=O)Nc2cccc3c2CC(O)C(=O)N3)c2ccc(C(F)(F)F)cc2)cc1 (stereo not drawn) [Compound 229, (2E,4Z)-N-(3-Hydroxy-2-oxo-1,2,3,4-tetrahydroquinolin-5-yl)-5-(4-isopropoxyphenyl)-5-[4-(trifluoromethyl)phenyl]-2,4-pentadienamide] | < 100 nM | significantly increases the pain threshold
13 |  | CCOc1ccc(/C(=C\C=C\C(=O)Nc2cccc3c2CC(O)CN3)c2ccc(C(F)(F)F)cc2)cc1 (stereo not drawn) [Compound 240, (2E,4Z)-5-(4-Ethoxyphenyl)-N-(3-hydroxy-1,2,3,4-tetrahydroquinolin-5-yl)-5-[4-(trifluoromethyl)phenyl]-2,4-pentadienamide monohydrochloride] | < 100 nM | significantly increases the pain threshold
14 |  | CCOc1ccc(/C(=C\C=C\C(=O)Nc2cccc3c2CC(O)C(=O)N3)c2ccc(C(F)(F)F)cc2)cc1 (stereo not drawn) [Compound 257, (2E,4Z)-N-(3-Hydroxy-2-oxo-1,2,3,4-tetrahydroquinolin-5-yl)-5-(4-ethoxyphenyl)-5-[4-(trifluoromethyl)phenyl]-2,4-pentadienamide] | < 100 nM | significantly increases the pain threshold
15 |  | CN(C)c1ccc(/C(=C\C=C\C(=O)Nc2cccc3c2CC(O)CN3)c2ccc(C(F)(F)F)cc2)cc1.Cl.Cl (stereo not drawn) [Compound 270, (2E,4Z)-5-[4-(N,N-Dimethylamino)phenyl]-N-(3-hydroxy-1,2,3,4-tetrahydroquinolin-5-yl)-5-[4-(trifluoromethyl)phenyl]-2,4-pentadienamide Dihydrochloride] | < 100 nM | significantly increases the pain threshold
16 |  | CCOc1ccc(/C(=C\C=C\C(=O)Nc2cccc3c2CC(O)C(=O)N3)c2ccc(Cl)cc2)cc1 (stereo not drawn) [Compound 310, (2E,4E)-5-(4-Chlorophenyl)-5-(4-ethoxyphenyl)-N-(3-hydroxy-2-oxo-1,2,3,4-tetrahydroquinolin-5-yl)-2,4-pentadienamide] | < 100 nM | significantly increases the pain threshold
17 |  | O=C(/C=C/C=C(\c1ccc(OC2COC2)cc1)c1ccc(C(F)(F)F)cc1)Nc1cccc2c1CC(O)C(=O)N2 (stereo not drawn) [Compound 314, (2E,4Z)-N-(3-Hydroxy-2-oxo-1,2,3,4-tetrahydroquinolin-5-yl)-5-[4-(oxetan-3-yloxy)phenyl]-5-[4-(trifluoromethyl)phenyl]-2,4-pentadienamide] | < 100 nM | significantly increases the pain threshold

Reference: patent US20090203667A1, “PENTADIENAMIDE DERIVATIVES” (Kyowa Hakko Kirin Co., Ltd., priority 2006, published 2009)
